According to US8404729B2, “Heterocyclic tetracyclic tetrahydrofuran derivatives” (Janssen Pharmaceutica, NV, priority 2005, dated 2013):

Columns and labels:
5-HT2C receptors = biological target: T1, 5-HT2C receptors (Sus scrofa, UniProt K7GSR7); assay: In vitro binding affinity for 5-HT2C receptor (3H-mesulergine radioligand binding); details: choroid plexus of the pig, read-out: 5-HT2C (pIC50) (converted)
T1 construct: the tissue used is the choroid plexus of the pig; from tissue; host or cells: pig choroid plexus
T1 sequence (K7GSR7 1-457): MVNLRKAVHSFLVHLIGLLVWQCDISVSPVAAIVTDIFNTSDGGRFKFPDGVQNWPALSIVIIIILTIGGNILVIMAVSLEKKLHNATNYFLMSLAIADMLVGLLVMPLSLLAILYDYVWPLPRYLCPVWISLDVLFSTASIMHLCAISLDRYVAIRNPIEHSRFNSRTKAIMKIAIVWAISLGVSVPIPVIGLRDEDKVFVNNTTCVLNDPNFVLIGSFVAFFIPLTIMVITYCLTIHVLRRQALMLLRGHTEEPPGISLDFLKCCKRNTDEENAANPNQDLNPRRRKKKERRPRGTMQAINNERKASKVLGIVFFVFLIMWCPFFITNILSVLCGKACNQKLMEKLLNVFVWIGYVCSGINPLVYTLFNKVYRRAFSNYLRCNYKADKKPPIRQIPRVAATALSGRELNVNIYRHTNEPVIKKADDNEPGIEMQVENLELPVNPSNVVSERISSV
Description: (§1) The interaction of the compounds of Formula (I) with 5-HT2A and 5-HT2C receptors was assessed in in vitro radioligand binding experiments. In general, a low concentration of a radioligand with a high binding affinity for the receptor is incubated with a sample of a tissue preparation enriched in a particular receptor (1 to 5 mg tissue) in a buffered medium (0.2 to 5 ml). During the incubation, the radioligands bind to the receptor. When equilibrium of binding is reached, the receptor bound radioactivity is separated from the non-bound radioactivity, and the receptor bound activity is counted. The interaction of the test compounds with the receptors is assessed in competition binding experiments. Various concentrations of the test compound are added to the incubation mixture containing the tissue preparation and the radioligand. Binding of the radioligand will be inhibited by the test compound in proportion to its binding affinity and its concentration. The radioligand used for 5-HT2A binding affinity is ^3H-ketanserin and the tissue used is the frontal cortex of the rat. The radioligand used for 5-HT2c binding affinity is ^3H-mesulergine and the tissue used is the choroid plexus of the pig.

NET = biological target: T2, NET (Rattus norvegicus, UniProt Q63380); assay: In vitro determination of NET reuptake inhibition ([3H]Nixosetine binding); details: rat brain cortex membranes, read-out: NET-inhibition (pIC50) (converted)
T2 construct: Cortex from rat brain was collected and homogenised; from tissue; host or cells: rat brain cortex
T2 sequence (Q63380 1-617): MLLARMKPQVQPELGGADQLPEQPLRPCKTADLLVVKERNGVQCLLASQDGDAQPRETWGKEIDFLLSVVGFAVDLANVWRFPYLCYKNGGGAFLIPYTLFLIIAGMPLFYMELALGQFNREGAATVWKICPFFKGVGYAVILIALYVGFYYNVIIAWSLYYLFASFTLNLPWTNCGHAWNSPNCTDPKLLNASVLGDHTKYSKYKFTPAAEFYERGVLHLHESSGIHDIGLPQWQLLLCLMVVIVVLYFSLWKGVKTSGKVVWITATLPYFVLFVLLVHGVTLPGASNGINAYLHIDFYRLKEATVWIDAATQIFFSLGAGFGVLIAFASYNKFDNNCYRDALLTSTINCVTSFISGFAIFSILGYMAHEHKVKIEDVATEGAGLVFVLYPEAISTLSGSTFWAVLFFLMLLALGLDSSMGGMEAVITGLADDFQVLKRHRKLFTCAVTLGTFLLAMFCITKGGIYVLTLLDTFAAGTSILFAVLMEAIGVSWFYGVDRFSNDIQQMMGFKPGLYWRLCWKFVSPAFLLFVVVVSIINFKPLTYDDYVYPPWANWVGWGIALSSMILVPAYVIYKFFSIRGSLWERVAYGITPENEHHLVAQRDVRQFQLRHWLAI
Description: Cortex from rat brain was collected and homogenised using an Ultra-Turrax T25 and a Dual homogeniser in ice-cold homogenising buffer containing Tris, NaCl and KCl (50 mM, 120 mM and 5 mM, respectively, pH 7.4) prior to dilution to an appropriate protein concentration optimised for specific and non-specific binding. […] Membrane-bound activity was detected by filtration through a Packard Filtermate harvester onto GF/B Unifilterplates, washed with ice-cold Tris-HCl buffer, containing NaCl and KCl (50 mM, 120 mM and 4 mM; pH 7.4; 6×0.5 ml). Filters were allowed to dry for 24 h before adding scintillation fluid. Scintillation fluid was allowed to saturate filters for 24 h before counting in a Topcount scintillation counter. Percentage specific bound and competition binding curves were calculated using S-Plus software (Insightful).

[1] = biological target: T3, human Dopamine D2L receptor (Homo sapiens, UniProt P14416); assay: In vitro binding affinity for human D2L receptor ([3H]Spiperone); details: membranes of human D2L receptor-transfected CHO cells, read-out: D2 (pIC50) (converted)
T3 construct: expressed in transfected cells; host or cells: CHO cells
T3 sequence (P14416 whole entry): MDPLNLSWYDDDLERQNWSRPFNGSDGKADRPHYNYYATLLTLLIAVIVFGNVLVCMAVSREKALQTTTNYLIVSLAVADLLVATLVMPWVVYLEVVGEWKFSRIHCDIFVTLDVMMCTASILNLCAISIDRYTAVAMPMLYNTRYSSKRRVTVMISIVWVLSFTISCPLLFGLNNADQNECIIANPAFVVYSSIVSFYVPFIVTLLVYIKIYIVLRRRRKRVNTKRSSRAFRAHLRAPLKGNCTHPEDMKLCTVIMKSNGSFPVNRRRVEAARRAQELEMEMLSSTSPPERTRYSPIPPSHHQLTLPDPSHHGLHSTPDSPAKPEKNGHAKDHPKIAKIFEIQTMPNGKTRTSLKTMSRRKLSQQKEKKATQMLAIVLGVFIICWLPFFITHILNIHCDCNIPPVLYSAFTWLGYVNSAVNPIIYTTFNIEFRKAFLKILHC
Description: Frozen membranes of human Dopamine D2L receptor-transfected CHO cells were thawed, briefly homogenised using an Ultra-Turrax T25 homogeniser and diluted in Tris-HCl assay buffer containing NaCl, CaCl2, MgCl2, KCl (50, 120, 2, 1, and 5 mM respectively, adjusted to pH 7.7 with HCl) to an appropriate protein concentration optimised for specific and non-specific binding. Radioligand [^3H]Spiperone (NEN, specific activity ˜70 Ci/mmol) was diluted in assay buffer at a concentration of 2 nmol/L. Prepared radioligand (50 μl), along with 50 μl of either the 10% DMSO control, Butaclamol (10^−6 mol/l final concentration), or compound of interest, was then incubated (30 min, 37° C.) with 400 μl of the prepared membrane solution. Membrane-bound activity was filtered through a Packard Filtermate harvester onto GF/B Unifilterplates and washed with ice-cold Tris-HCl buffer (50 mM; pH 7.7; 6×0.5 ml). Filters were allowed to dry before adding scintillation fluid and counting in a Topcount scintillation counter. Percentage specific bound and competition binding curves were calculated using S-Plus software (Insightful).

5-HT2A receptors = biological target: T4, 5-HT2A receptors (Rattus norvegicus, UniProt P14842); assay: In vitro binding affinity for 5-HT2A receptor (3H-ketanserin radioligand binding); details: frontal cortex of the rat, read-out: 5-HT2A (pIC50) (converted)
T4 construct: the tissue used is the frontal cortex of the rat; from tissue; host or cells: rat frontal cortex
T4 sequence (P14842 whole entry): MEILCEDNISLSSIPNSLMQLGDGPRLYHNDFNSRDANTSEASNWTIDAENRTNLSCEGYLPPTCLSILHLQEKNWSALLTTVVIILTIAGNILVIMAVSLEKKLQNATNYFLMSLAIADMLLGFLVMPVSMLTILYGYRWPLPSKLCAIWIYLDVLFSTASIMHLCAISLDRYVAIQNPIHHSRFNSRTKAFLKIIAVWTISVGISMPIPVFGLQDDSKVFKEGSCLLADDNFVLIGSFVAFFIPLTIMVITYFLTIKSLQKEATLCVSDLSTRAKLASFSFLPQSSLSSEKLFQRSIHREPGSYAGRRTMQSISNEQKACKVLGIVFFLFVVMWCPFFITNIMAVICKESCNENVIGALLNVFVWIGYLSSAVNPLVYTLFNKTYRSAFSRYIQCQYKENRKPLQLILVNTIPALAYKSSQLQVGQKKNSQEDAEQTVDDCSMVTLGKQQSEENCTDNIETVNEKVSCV
Description: as §1, with “In general, a low concentration of a radioligand with a high binding affinity for the receptor is incubated with a sample of a tissue preparation enriched in a particular receptor (1 to 5 mg tissue) in a buffered medium (0.2 to 5 ml).” left out

Row | Structure (SMILES) | IC50 (5-HT2C receptors) [nM] | IC50 (NET) [nM] | IC50 [1] [nM] | IC50 (5-HT2A receptors) [nM]
1 | CNCC1CC2c3ccccc3N(Cc3ccccc3)c3ncccc3C2O1 (mixture of isomers) [Compound 37] | 100 | 1260 | 1580 | –
2 | CN(C)C[C@H]1C[C@@H]2c3ccccc3Sc3sc(CO)cc3[C@H]2O1 (racemic) [Compound 5] | 20 | 398 | 200 | –
3 | CNC[C@H]1C[C@@H]2c3ccccc3Sc3sccc3[C@H]2O1 (racemic) [Compound 20] | 50.1 | 63.1 | 1260 | 79.4
4 | CN(CCO)CC1CC2c3ccccc3Sc3sccc3C2O1 (racemic) [Compound 25] | 10 | 126 | 200 | 10
5 | CNC[C@H]1C[C@@H]2c3ccccc3Sc3sccc3[C@H]2O1 (racemic) [Compound 32] | – | 39.8 | 2000 | –
6 | CN(CCO)C[C@H]1C[C@H]2c3ccccc3Sc3sccc3[C@@H]2O1 (relative stereo) [Compound 10] | 20 | 200 | 200 | 12.6
7 | OCCN1CCN(C[C@H]2C[C@H]3c4ccccc4Sc4sccc4[C@@H]3O2)CC1 (relative stereo) [Compound 12] | 251 | > 10000 | 31.6 | 12.6
8 | c1ccc2c(c1)Sc1sccc1[C@@H]1O[C@@H](CN3CCC4(CC3)OCCO4)C[C@@H]21 (relative stereo) [Compound 13] | 100 | > 10000 | 20 | 5.01
9 | OCCN1CCN(C[C@H]2C[C@@H]3c4ccccc4Sc4sccc4[C@H]3O2)CC1 (relative stereo) [Compound 15] | 251 | 2510 | 251 | 200
10 | OC1CCN(C[C@H]2C[C@@H]3c4ccccc4Sc4sccc4[C@H]3O2)C1 (relative stereo) [Compound 16] | 15.8 | 3160 | 158 | 20
11 | c1ccc2c(c1)Sc1sccc1[C@H]1O[C@@H](CN3CCC4(CC3)OCCO4)C[C@H]21 (relative stereo) [Compound 17] | 100 | > 10000 | 158 | 39.8
12 | CN(CCO)C[C@H]1C[C@@H]2c3ccccc3Sc3sccc3[C@H]2O1 (relative stereo) [Compound 18] | 39.8 | 31.6 | – | 39.8
13 | CNC[C@H]1C[C@H]2c3ccccc3Sc3sccc3[C@@H]2O1 (relative stereo) [Compound 21] | 3.98 | 126 | 501 | < 10
14 | OC1CCN(C[C@H]2C[C@H]3c4ccccc4Sc4sccc4[C@@H]3O2)C1 (relative stereo) [Compound 23] | 3.98 | 3160 | 251 | < 10
15 | CN(C)C1CCN(C[C@H]2C[C@@H]3c4ccccc4Sc4sccc4C3O2)C1 (relative stereo) [Compound 27] | 50.1 | > 10000 | 398 | –
16 | CN(C)C1CCN(C[C@H]2C[C@H]3c4ccccc4Sc4sccc4[C@@H]3O2)C1 (relative stereo) [Compound 29] | 251 | > 10000 | 794 | –
17 | CNCC1CC2c3ccccc3Sc3sccc3C2O1 (single isomer, unassigned) [Compound 31] | 27.5 | 1000 | 1260 | –
18 | CN(C)C[C@@H]1C[C@@H]2c3ccccc3Sc3sccc3[C@H]2O1 [Compound 2] | 7.94 | 63.1 | 200 | < 10
19 | COC(=O)c1cc2c(s1)Sc1ccccc1[C@H]1C[C@H](CN(C)C)O[C@H]21 [Compound 4] | 158 | 631 | 3980 | –
20 | CNCC1CC2c3ccccc3Cc3sccc3C2O1 (stereo not drawn) [Compound 6] | 39.8 | 2000 | 2510 | 39.8
21 | CNCC1CC2c3ccccc3Cc3sccc3C2O1 (stereo not drawn) [Compound 7] | 20 | 2510 | 3160 | 251
22 | CNCC1CC2c3ccccc3Cc3sccc3C2O1 (stereo not drawn) [Compound 8] | 63.1 | 1000 | 3160 | > 10000
23 | CN(C)CC1CC2c3ccccc3Sc3sccc3C2O1 (stereo not drawn) [Compound 9] | 25.1 | 316 | 398 | 15.8
24 | OCCC1CCN(CC2CC3c4ccccc4Sc4sccc4C3O2)CC1 (stereo not drawn) [Compound 11] | 39.8 | 7940 | 6.31 | 3.16
25 | CN(C)CC1CC2c3ccccc3Cc3sccc3C2O1 (stereo not drawn) [Compound 33] | 50.1 | 1000 | 794 | 100
26 | CCOC(=O)c1cc2c(s1)Sc1ccccc1C1CC(CN(C)C)OC21 (stereo not drawn) [Compound 34] | 316 | 2510 | 3980 | 158
27 | CN(C)CC1CC2c3ccccc3Cc3ccsc3C2O1 (stereo not drawn) [Compound 35] | 15.8 | 501 | 794 | 6.31
28 | CNCC1CC2c3ccccc3N(Cc3ccccc3)c3ncccc3C2O1 (stereo not drawn) [Compound 36] | 631 | 5010 | 6310 | –
